# Experimental data from patent publication US8642539B2, “Method for treating a disease characterized by reduced appetite” (Takeda Pharmaceutical Company Limited, priority 2007, dated 2014).
# “Also recorded” adds a separate entry of the source.
# Key:
# GPR100 = GPR100 (Homo sapiens, UniProt Q8TDU9); conditions: mature Insl5; cited from earlier work
# GPR100−/− mice = assay: Insl5 administered intraperitoneally, feeding behaviour in GPR100−/− mice; assay type: in vivo; conditions: intraperitoneal, FIG. 9 lower panel
# Method: (§1) To test the hypothesis that Insl5 is an orexigenic hormone directly, it was administered intraperitoneally to wt and GPR100−/− mice. […] Moreover, this effect is mediated through GPR100.
# wt mice = assay: Insl5 administered intraperitoneally, food intake in wt mice; assay type: in vivo; conditions: wt mice (129/SvEv), intraperitoneal, dose dependent; FIG. 9 upper panel
# Method: as §1
# GPR100, sequence (Q8TDU9 whole entry, species assumed): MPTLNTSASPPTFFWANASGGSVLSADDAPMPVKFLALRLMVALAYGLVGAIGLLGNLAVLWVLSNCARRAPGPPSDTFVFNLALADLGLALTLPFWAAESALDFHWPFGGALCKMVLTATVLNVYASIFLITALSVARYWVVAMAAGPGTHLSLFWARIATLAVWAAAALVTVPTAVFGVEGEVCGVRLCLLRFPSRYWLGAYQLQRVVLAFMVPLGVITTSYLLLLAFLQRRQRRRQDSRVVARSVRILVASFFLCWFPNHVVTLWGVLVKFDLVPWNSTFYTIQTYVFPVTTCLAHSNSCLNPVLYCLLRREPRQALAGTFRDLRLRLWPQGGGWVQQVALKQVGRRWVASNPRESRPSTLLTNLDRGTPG
substance,measurement,setting,value
"insulin-like peptide 5 [Insl5, 45 amino acid residue mature peptide comprising an A chain and a B chain connected by disulfide bonds; endogenous ligand of GPR100]",affinity in displacing relaxin-3 peptide from GPR100,GPR100,"high affinity, in the nanomolar range"
same,feeding behaviour,GPR100−/− mice,no effect on feeding behaviour
same,food intake,wt mice,increase of food intake; also recorded: significant increase in food intake
